Read-outs that look alike come from different tables or passages of the source. No end group written: not given here.
Assays:
PACAP-R3 = target: T1, PACAP-R3 (Homo sapiens, UniProt P41587); assay: Cyclic AMP SPA on CHO cells expressing PACAP R3; type: cell-based; set-up: expressed in transfected cells; host or cells: CHO cells (Geneticin selection); details: for R3 Selectivity: ratio of EC50 at R2 versus EC50 at R3
T1 sequence (P41587 24-438): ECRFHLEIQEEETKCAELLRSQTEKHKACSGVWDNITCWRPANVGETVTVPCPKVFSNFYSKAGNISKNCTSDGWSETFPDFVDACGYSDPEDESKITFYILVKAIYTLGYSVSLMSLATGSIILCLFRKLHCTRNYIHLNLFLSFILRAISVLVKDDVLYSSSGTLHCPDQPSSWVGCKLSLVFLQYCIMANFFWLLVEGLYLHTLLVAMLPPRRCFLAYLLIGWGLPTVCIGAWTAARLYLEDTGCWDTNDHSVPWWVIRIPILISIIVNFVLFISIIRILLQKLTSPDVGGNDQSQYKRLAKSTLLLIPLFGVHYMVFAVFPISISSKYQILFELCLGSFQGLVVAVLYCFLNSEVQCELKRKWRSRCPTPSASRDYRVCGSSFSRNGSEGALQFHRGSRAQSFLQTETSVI
Method in brief: (§1)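 Potency reflects cyclic AMP accumulation, determined by SPA, after a 15 min, 37 C peptide exposure of CHO cells carrying the human receptor. Values are expressed relative to the maximal PACAP27 effect, with EC50 taken at its 50% level.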

rat islets = assay: Insulin secretion by isolated rat islets; type: cell-based, Sprague-Dawley rats; details: for Islet Insulin Release (% of Basal): 10 nM peptide, 2 hrs, 8 mM glucose, % of [insulin] in 8 mM glucose alone
Experimental: Sprague Dawley rats (275-320 g) were used as the source of donor islets. Briefly, the pancreas was filled with 10 ml of cold reconstituted Liberase RI (Boehringer Manheim), harvested and incubated with additional 5 ml enzyme solution in water bath for 30 minutes. Tissue suspension was washed twice with cold 10% FBS/Hanks buffer (Gibco), resuspended in 8 ml 25% ficoll (Sigma) and then layered with 5 ml each of 23%, 20% and 11% ficoll. The islets in the 20% layer after centrifugation were removed, washed twice with cold 10% FBS/Hank buffer and resuspended in 10% FBS/RPMI 1640 media (Sigma).
Islet insulin release: Rat islets were isolated from Sprague-Dawley rats as described in example 1 and treated with either vehicle or specified peptide (10 nM) for 2 hrs. Insulin concentration in the medium was measured with the Linco rat insulin RIA kit. Glucose concentration in the medium was 8 mM. The data are expressed as % of [insulin] in 8 mM glucose alone.

[1] = Intraperitoneal glucose tolerance test (IPGTT), plasma glucose in rats; type: in vivo, Wistar rats; details: for Plasma Glucose (% of Basal) s.c.: plasma glucose after IPGTT (1 g/kg glucose), 1 nmol/kg peptide s.c.; for Plasma Glucose (% of Basal) s.c. / Plasma Glucose (% of Basal) i.v.: % of vehicle; for Plasma Glucose (% of Basal) i.v.: plasma glucose area under the curve after IPGTT (1 g/kg glucose), 1 nmol/kg peptide i.v.; for elevation of plasma glucose 30 minutes after IPGTT: 1 nmole/kg s.c., rats, FIG. 7
Experimental: Wistar rats are fasted overnight and then anesthetized with pentobarbital. The rats were eye-bled (zero time) and the peptide (in 1% human albumin) was injected into the tail vein. Five minutes later, 1 g/kg of glucose (in saline) was injected intraperitoneally, and the rats were eye-bled after 15, 30 and 60 minutes. Plasma glucose levels were determined using the Technicon Axon autoanalyzer, Bayer Diagnosics division of Bayer Corporation, Tarrytown N.Y., operated using Method No. SM4-2143F90“Glucose”.
Wistar rats were fasted overnight and then anesthetized with Pentobarbital. The rats were eye-bled (zero time) and the peptide (in 1% human albumin) was injected subcutaneously. Five minutes later, 1 g/kg of glucose (in saline) was injected intraperitoneally, and the rats were eye-bled after 30 minutes.
Plasma glucose: Data are expressed as % of vehicle of plasma glucose area under the curve after IPGTT (1 g/kg glucose) after treatment with 1 nmol/kg dose of the peptide. […] The present inventors have shown for the first time that this is because the effects of R2 and R3 on glucose tend to cancel each other out. […] Therefore, R3-selectivity appears to be a desirable attribute for medicaments which are to be employed in achieving blood glucose reduction, for treatment of type 2 diabetes.

[2] = Peptide-induced elevation of plasma insulin after IVGTT in rats; type: in vivo; details: one minute after IVGTT (0.4 g/kg glucose), Wistar rats
Experimental: Wistar rats are fasted overnight (17 hrs) and then anesthetized with pentobarbital (0.1 ml/100 g BW). Glucose (0.4 g/kg dissolved in 1% human albumin-saline)+/−peptide (dissolved in 1% human albumin-saline) is injected intravenously into the tail vein. The rats are eye-bled 1 minute after the injection and 50-100 ul of the plasma are assayed for insulin level with the Linco RIA kit (Linco Research, Inc., St. Charles, Mo.).
In accordance with the protocol of example 2 above, overnight fasted Wistar rats were anesthetized with pentobarital; i.v. injected with glucose±peptide and eye bled after 1 minute. N=12 rats/group. […] The peptide or vehicle was given i.v. followed by a glucose load given i.p. in accordance with example 3. The plasma glucose was followed over the time period indicated.
Plasma insulin: Data are expressed as % of plasma insulin one minute after IVGTT (0.4 g/kg glucose) with either saline, 0.1 nmol/kg P51, P55, P60, P66 or 1 nmole/kg of the other peptides in Wistar rats. Blood was drawn from the eye and insulin was measured with the rat insulin RIA kit (Linco Research, Inc., St. Charles, Mo.).

PACAP-R2 = target: T2, PACAP-R2 (Homo sapiens, UniProt P32241); assay: Cyclic AMP SPA on CHO cells transfected with PACAP-R2; type: cell-based; details: concentration at which 50% of maximum PACAP27 activity is achieved, NA = no detectable activities
T2 construct: expressed in transfected cells; host or cells: CHO cells
T2 sequence (P32241 31-457): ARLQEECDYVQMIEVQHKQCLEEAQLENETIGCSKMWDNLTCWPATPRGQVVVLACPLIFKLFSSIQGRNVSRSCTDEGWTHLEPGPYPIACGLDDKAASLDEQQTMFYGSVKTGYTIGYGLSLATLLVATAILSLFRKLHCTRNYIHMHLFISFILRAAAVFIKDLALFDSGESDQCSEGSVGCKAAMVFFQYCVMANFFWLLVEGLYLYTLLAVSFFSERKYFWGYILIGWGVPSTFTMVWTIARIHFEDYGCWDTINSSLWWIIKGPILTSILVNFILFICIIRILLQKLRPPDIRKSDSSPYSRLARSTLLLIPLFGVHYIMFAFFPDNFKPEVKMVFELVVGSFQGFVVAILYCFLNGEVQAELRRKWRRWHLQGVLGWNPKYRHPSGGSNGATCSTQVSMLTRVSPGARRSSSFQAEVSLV
Method in brief: as §1

[3] = cAMP SPA, CHO cells transfected with PACAP-R3, concentration at which 50% of maximum PACAP27 activity is achieved, NA = no detectable activities, read-out: R3 EC50

Substance | EC50 (PACAP-R3; [3]) | R3 Selectivity (PACAP-R3) | Islet Insulin Release (% of Basal) (rat islets) | Plasma Glucose (% of Basal) s.c. [1] | Plasma Insulin (% of Basal) ([2]; 0.1 nmol/kg peptide i.v.) | EC50 (PACAP-R2; cAMP SPA, read-out: R2 EC50) | Plasma Insulin (% of Basal) ([2]; 1 nmole/kg peptide i.v.) | Plasma Glucose (% of Basal) i.v. [1] | elevation of plasma glucose 30 minutes after IPGTT [1] | EC50 (PACAP-R3) | release of insulin from isolated rat islets (rat islets; 0.1-100 nM, 3 or 8 mM glucose, FIGS. 4A-4B) | disposal of blood glucose ([1]; peptide i.v. followed by glucose load i.p., FIG. 5) | EC50 (PACAP-R2; R2 EC50, cAMP SPA)
HSDAVFTDNYTRLRKQVAAKKYLQSIKNKRY [Peptide R3P66] | 0.4 nM | 250 | 184% | 82% | 388% | 100 nM |  |  |  |  |  |  | 
H-HSDAVFTDNYTRLRKQMAAKKYLNSIKNKRY [Peptide R3P55] | 0.17 nM | 280 |  |  | 208% | 50 nM |  |  |  |  |  |  | 
HSDAVFTENYTKLRKQLAAKKYLNDLLNGGT [Peptide R3P10] | 11 nM | 0.3 | 174% |  |  | 3 nM |  |  |  |  |  |  | 
PACAP 27: 27-amino acid form of pituitary adenylate cyclase activating peptide with an amidated carboxyl terminus [reference compound] |  |  | 186% |  |  |  | 320% |  |  |  |  |  | 
HSDAVFTDNYTRLRKQLAAKKYLNDIKKKRY [Peptide R3P36] | 0.4 nM | >200 |  | 78% |  | > 90 nM | 255% | 73% |  |  |  |  | 
HSDAVFTDNYTRLRKQVAVKKYLQSIKKK [Peptide R3P81] | 0.5 nM | 100 |  |  |  | 50 nM | 302% |  |  |  |  |  | 
HSDAVFTDNYTRLRKQVAAKKYLQSIKK [Peptide R3P60] | 1 nM | 120 |  |  | 283% | 120 nM |  |  |  |  |  |  | 
HSDAVFTDNYTRLRKQLAAKKYLNDIKKGGT [Peptide R3P12] | 0.5 nM | >200 | 324% | 76% |  | > 100 nM | 302% |  | significantly reduced |  |  |  | 
HSDAVFTDNYTRLRKQMAVKKYLNSIKKGGT [Peptide R3P9] | 2 nM | 20 | 221% |  |  | 40 nM |  |  |  |  |  |  | 
HSDAVFTENYTKLRKQLAAKKYLNDLKKGGT [Peptide R3P3] |  | 130 | 275% | 72% |  |  | 361% | 77% | significantly reduced | 0.75 nM | significantly enhances the release of insulin | markedly accelerated the disposal of blood glucose | 100 nM

Source: patent US6972319B1, “Pituitary adenylate cyclase activating peptide (PACAP)receptor 3 (R3) agonists and their pharmacological methods of use” (priority 1999, dated 2005)
